This note sets out measurements from US4613590A, “Amino D-manno-2-octulopyranosidonate containing compounds, pharmaceutical compositions and method of use” (Abbott Laboratories, priority 1985, dated 1986).

One assay has as its target CMP-KDO synthetase (Escherichia coli, UniProt P04951). The assay can be described thus: Inhibition of CMP-KDO synthetase activity (colorimetric phosphate). The format is biochemical, gram-negative bacteria. The protocol: The inhibition of CMP-KDO synthetase activity was measured in reaction mixtures buffered at pH 9.5 containing: 2 mM KDO, 5 mM magnesium cytidine triphosphate, and inorganic pyrophosphatase. The pyrophosphate generated during the course of enzyme reaction was cleaved by the pyrophosphatase to inorganic orthophosphate, the level of which was measured colorimetrically. […] Potency was assessed by determining the level of inhibitor required to inhibit the enzyme reaction by 50% under the conditions of the assay described above (I50). A potent inhibitor is defined as one having an I50 of 1 mM or less.

In a further assay the test system is Escherichia Coli Juhl. Briefly: Mouse protection assay, Escherichia Coli Juhl. The format is in vivo. The conditions noted are these: mice infected with lethal dose of Escherichia Coli Juhl. As for the experimental part: (§1) Antibacterial activity of the compounds were tested in a mouse protection assay against Escherichia Coli Juhl, Serratia marcescens and the gram positive bacterium Staphylococcus aureus.

Another assay relates to Serratia marcescens. Briefly: Mouse protection assay, Serratia marcescens. Type of assay: in vivo. The note with it: mice infected with lethal dose of Serratia marcescens. The protocol:
as §1

Like-named read-outs stand apart in the source and are kept apart here.

Sequence of CMP-KDO synthetase (P04951 whole entry): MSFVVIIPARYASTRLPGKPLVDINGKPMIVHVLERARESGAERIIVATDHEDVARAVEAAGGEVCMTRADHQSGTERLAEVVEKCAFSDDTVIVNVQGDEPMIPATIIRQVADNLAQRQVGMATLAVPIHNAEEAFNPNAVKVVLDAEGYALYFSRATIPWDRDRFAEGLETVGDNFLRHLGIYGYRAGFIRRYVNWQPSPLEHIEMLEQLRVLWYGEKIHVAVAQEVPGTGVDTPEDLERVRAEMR

As usually defined, the ED50 is the dose at which the effect has come halfway, by size or by number of responders. The low end stands for an effect at a small dose, the high end for a need for a large dose. In turn, `NC[C@@H](O)[C@H]1OC(O)(C(=O)O)C[C@@H](O)[C@H]1O` (stereo partly drawn) [Example 1, 8-Amino-3,8-dideoxy-D-manno-2-octulosonate] registered an IC50 on CMP-KDO synthetase of 310 µM. Besides, the ED50 in the assay with Escherichia Coli Juhl was 25 mg/kg; in the assay with Serratia marcescens, 30 mg/kg.
For `NC[C@@H](O)[C@H]1O[C@H](C(=O)O)C[C@@H](O)[C@H]1O` [Example 2, α-C-[1,5-anhydro-7-amino-2,7-dideoxy-D-manno-heptopyranosyl]-carboxylate] the same measures were 7 µM, 3.1 mg/kg and 6.3 mg/kg.
On CMP-KDO synthetase, `NCC(=O)NCC(=O)NC[C@@H](O)[C@H]1O[C@H](C(=O)O)C[C@@H](O)[C@H]1O` [Example 3, α-C-[1,5-anhydro-7-(glycyl-glycylamino)-2,7-dideoxy-D-manno-heptopyranosyl]-carboxylate] registered an IC50 of 230 µM. Also, the ED50 in the assay on Escherichia Coli Juhl was found to be 6.3 mg/kg; in the assay on Serratia marcescens, 12.5 mg/kg.
Molecule `CNC[C@@H](O)[C@H]1OC(O)(C(=O)O)C[C@@H](O)[C@H]1O` (stereo partly drawn) [Example 4, 8-Methylamino-3,8-dideoxy-D-manno-2-octulosonate] displayed an IC50 on CMP-KDO synthetase of 81 µM.
On the same count and under the same terms, to `CN(C)C[C@@H](O)[C@H]1OC(O)(C(=O)O)C[C@@H](O)[C@H]1O` (stereo partly drawn) [Example 5, 8-Dimethylamino-3,8-dideoxy-D-manno-2-octulosonate] belongs 220 µM; to `CCNC[C@@H](O)[C@H]1OC(O)(C(=O)O)C[C@@H](O)[C@H]1O` (stereo partly drawn) [Example 6, 8-Ethylamino-3,8-dideoxy-D-manno-2-octulosonate], 70 µM.
As to `NCC[C@@H](O)[C@H]1O[C@H](C(=O)O)C[C@@H](O)[C@H]1O` [Example 7, α-C-[1,5 Anhydro-8-amino-2,7,8-trideoxy-D-mannooctopyranosyl] carboxylate], the IC50 at CMP-KDO synthetase (pH 9.5, 2 mM KDO, 5 mM magnesium cytidine triphosphate, inorganic pyrophosphatase, read-out: I50) was determined as 1.9 µM.
